Measurements taken from US20170253607A1, “LONG-ACTING HIV PROTEASE INHIBITOR” (Shionogi & Co., Ltd., priority 2014, published 2017).
pIC50: −log10 of the molar value.

The compounds below were run against HIV-1 PR (Human immunodeficiency virus type 1 group M subtype B, UniProt P04585) (assay: HIV-protease inhibitory activity assay (FRET peptide substrate)). Settings: Test Example 1.
Assay type: biochemical
Procedure, shortened: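 HIV-1 PR (0.83 ng) preincubated with compounds 20 min at room temperature in 0.1 mol/L NaAc, 0.5 mol/L NaCl, 1 mmol/L EDTA, 1 mmol/L DTT, 0.05% Tween 20, pH 4.8. Cleavage of HiLyte Fluor 488/QXL 520 FRET peptide (2 μmol/L) read after 60 minutes at 485/535 nm; IC50 from four-parameter logistic fit.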

First: COc1ccc(S(=O)(=O)N(CC(C)C)CC(O)C(Cc2ccc(OCCNC(=O)c3cccc(Cl)c3O)cc2)NC(=O)OC2COC3(C)OCCC23)cc1 (stereo not drawn) [Compound I-169]
Second: COc1ccc(S(=O)(=O)N(CC(C)C)CC(O)C(Cc2ccc(NCc3ccccc3-c3c(C(=O)O)[nH]c4ccc(Cl)cc34)cc2)NC(=O)OC2COC3(C)OCCC23)cc1 (stereo not drawn) [Compound I-661]
The pIC50 of the first is 0.43 log units higher: 9.06 for the first, 8.63 for the second.

First: COc1ccc(S(=O)(=O)N(CC(C)C)CC(O)C(Cc2ccc(N(C)Cc3cc(OC)ccc3C(=O)Nc3sc4c(c3C(=O)O)CC(C)(C)CC4)cc2)NC(=O)OC2COC3(C)OCCC23)cc1 (stereo not drawn) [Compound I-762]
Second: COc1ccc(S(=O)(=O)N(CC(C)C)CC(O)C(Cc2ccc(N(C)Cc3cccnc3-c3sc4c(c3C(=O)O)CC(C)(C)CC4)cc2)NC(=O)OC2COC3(C)OCCC23)cc1 (stereo not drawn) [Compound I-129]
The pIC50 of the first is 0.30 log units lower: 8.21 for the first, 8.51 for the second. The second is the more potent here.

Compared with `COc1ccc(S(=O)(=O)N(CC(C)C)CC(O)C(Cc2ccc(NCC3(c4cccc(-c5sc6c(c5C(=O)O)CC(C)(C)CC6)c4)CCCC3)cc2)NC(=O)OC2COC3(C)OCCC23)cc1` (stereo not drawn) [Compound I-393], `COc1ccc(S(=O)(=O)N(CC(C)C)CC(O)C(Cc2ccc(OC3CN(c4cccc(-c5sc6c(c5C(=O)O)CC(C)(C)CC6)c4)C3)cc2)NC(=O)OC2COC3(C)OCCC23)cc1` (stereo not drawn) [Compound I-360] is 0.50 log units higher in pIC50: 7.84 for the first, 8.34 for the second. The second is the more potent here.

`COc1ccc(S(=O)(=O)N(CC(C)C)CC(O)C(Cc2ccc(OCC3CCN(c4cccc(-c5sc6c(c5C(=O)O)CC(C)(C)CC6)c4)C3)cc2)NC(=O)OC2COC3(C)OCCC23)cc1` (stereo not drawn) [Compound I-896] and `COc1ccc(S(=O)(=O)N(CC(C)C)CC(O)C(Cc2ccc(OCC3CCN(c4ccc(-c5sc6c(c5C(=O)O)CC(C)(C)CC6)cc4)C3)cc2)NC(=O)OC2COC3(C)OCCC23)cc1` (stereo not drawn) [Compound I-894] are within 0.2 log units of each other in pIC50: 7.78 for the first, 7.69 for the second.

First: COc1ccc(S(=O)(=O)N(CC(C)C)C[C@@H](O)[C@H](Cc2ccccc2)NC(=O)O[C@H]2CO[C@@]3(CNC(=O)/C=C/c4sc5c(c4C(=O)O)CC(C)(C)CC5)OCC[C@@H]23)cc1 [Compound I-31]
Second: COc1ccc(S(=O)(=O)N(CC(C)C)C[C@@H](O)[C@H](Cc2ccc(NCc3sc4c(c3C(=O)O)CC(C)(C)CC4)cc2)NC(=O)O[C@H]2CO[C@@]3(C)OCC[C@@H]23)cc1 [Compound I-14]
The pIC50 of the first is 0.37 log units higher: 9.14 for the first, 8.77 for the second. The first is the more potent here.

Going from `COc1ccc(S(=O)(=O)N(CC(C)C)CC(O)C(Cc2ccc(NC3CCCc4c(-c5sc6c(c5C(=O)O)CC(C)(C)CC6)cccc43)cc2)NC(=O)OC2COC3(C)OCCC23)cc1` (stereo not drawn) [Compound I-752] to `COc1ccc(S(=O)(=O)N(CC(C)C)CC(O)C(Cc2ccc(CN3CCc4c(cccc4-c4sc5c(c4C(=O)O)CC(C)(C)CC5)C3)cc2)NC(=O)OC2COC3(C)OCCC23)cc1` (stereo not drawn) [Compound I-388], the pIC50 rises from 7.88 to 8.82 (0.94 log units). The second is the more potent here.

`COc1ccc(S(=O)(=O)N(CC(C)C)CC(O)C(Cc2ccc(OC3CCN(c4ccc(C#N)cc4-c4sc5c(c4C(=O)O)CC(C)(C)CC5)CC3)cc2)NC(=O)OC2COC3(C)OCCC23)cc1` (stereo not drawn) [Compound I-201] and `COc1ccc(S(=O)(=O)N(CC(C)C)CC(O)C(Cc2ccc(Oc3ccc(-c4sc5c(c4C(=O)O)CC(C)(C)CC5)c(C(F)(F)F)c3)cc2)NC(=O)OC2COC3(C)OCCC23)cc1` (stereo not drawn) [Compound I-135] are within 0.2 log units of each other in pIC50: 7.99 for the first, 8.17 for the second.

Going from `COc1ccc(S(=O)(=O)N(CC(C)C)CC(O)C(Cc2ccc(N(C)CC3COCCC3c3sc4c(c3C(=O)O)CC(C)(C)CC4)cc2)NC(=O)OC2COC3(C)OCCC23)cc1` (stereo not drawn) [Compound I-400] to `COc1ccc(S(=O)(=O)N(CC(C)C)CC(O)C(Cc2ccc(N(C)CC3=C(c4sc5c(c4C(=O)O)CC(C)(C)CC5)CCC(F)(F)C3)cc2)NC(=O)OC2COC3OCCC23)cc1` (stereo not drawn) [Compound I-881], the pIC50 falls from 8.77 to 8.23 (0.54 log units).

`COc1ccc(S(=O)(=O)N(CC(C)C)CC(O)C(Cc2ccc(COc3ccc4c(c3C(=O)O)CC(C)(C)CC4)cc2)NC(=O)OC2COC3OCCC23)cc1` (stereo not drawn) [Compound I-811] and `COc1ccc(S(=O)(=O)N(CC(C)C)CC(O)C(Cc2ccc(OCc3ccccc3-n3nc4c(c3C(=O)O)CC3(CCCC3)CC4)cc2)NC(=O)OC2COC3(C)OCCC23)cc1` (stereo not drawn) [Compound I-53] are within 0.2 log units of each other in pIC50: 9.09 for the first, 9.08 for the second.
